Data reported in PMC12429584, “5-Hydroxylysine Captures the Suicidally-Inactivated Conformational State of Lysine 5,6-Aminomutase” (International Journal of Molecular Sciences, 2025).

How the values were obtained:
[1] = target: T1, Lysine 5,6-aminomutase (5,6-LAM) (Acetoanaerobium sticklandii, UniProt E3PRJ4+E3PRJ5); test: UV-visible and X-band EPR spectroscopy; format: binding; settings: PLP and dAdoCbl holoenzyme, 100 mM NH4-EPPS pH 8.5, 37 °C; 2.5 mM (UV-vis) or 30 mM (EPR) 5-HL; active site, external aldimine with PLP; mechanism-based (suicide) inhibitor; stereoisomer mixture
T1 construct: gene kamD
T1 sequence (E3PRJ5 1-519 limits assumed): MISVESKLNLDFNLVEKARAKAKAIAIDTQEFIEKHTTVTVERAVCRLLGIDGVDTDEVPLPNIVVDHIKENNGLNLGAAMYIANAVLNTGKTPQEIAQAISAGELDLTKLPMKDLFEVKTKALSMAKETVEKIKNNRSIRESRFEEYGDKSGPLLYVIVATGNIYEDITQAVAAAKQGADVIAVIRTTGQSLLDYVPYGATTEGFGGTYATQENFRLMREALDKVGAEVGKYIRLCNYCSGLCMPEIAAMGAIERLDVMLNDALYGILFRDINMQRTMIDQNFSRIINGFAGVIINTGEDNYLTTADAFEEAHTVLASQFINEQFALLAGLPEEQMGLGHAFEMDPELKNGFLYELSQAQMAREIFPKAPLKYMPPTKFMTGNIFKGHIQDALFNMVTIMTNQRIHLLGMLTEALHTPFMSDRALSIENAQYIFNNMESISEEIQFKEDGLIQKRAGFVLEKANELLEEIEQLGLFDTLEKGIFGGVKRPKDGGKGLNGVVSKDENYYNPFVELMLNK
T1 sequence (E3PRJ4 1-262): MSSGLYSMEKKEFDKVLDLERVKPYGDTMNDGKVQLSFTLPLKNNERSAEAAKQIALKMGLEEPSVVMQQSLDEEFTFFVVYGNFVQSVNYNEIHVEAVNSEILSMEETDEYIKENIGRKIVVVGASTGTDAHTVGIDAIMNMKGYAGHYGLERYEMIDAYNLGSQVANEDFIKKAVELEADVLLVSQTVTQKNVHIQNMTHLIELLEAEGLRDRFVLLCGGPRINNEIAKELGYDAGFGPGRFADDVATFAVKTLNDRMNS

[2] = target: T1, Lysine 5,6-aminomutase (5,6-LAM); settings: turnover to 2,5-DAH at 1 and 3 min; PLP and dAdoCbl as cofactors

Compound | UV-visible and X-band EPR spectroscopy [1] | thin-layer chromatography of product, ninhydrin [2]
NCC(O)CCC(N)C(=O)O (racemic) [5-HL, 5-hydroxylysine] | These spectral changes demonstrate that 5-HL mimics the initial steps of transaldimination and Co–C bond rupture | 
NCCCC[C@@H](N)C(=O)O [D-lysine] |  | bottom spot corresponding to D-lysine and the top spot corresponding to the product
